The kinase profiling compilation of Christmann-Franck et al. (2016)

How the values were obtained:
Test in all cases: KINOMEscan competition binding
Details in all cases: compound 10.0 µM
SGK110 (human) = SGK110 (human) (UniProt P0C264)
STK32A (human) = STK32A (human) (UniProt Q8WU08)
SBK1 (human) = SBK1 (human) (UniProt Q52WX2)
FGFR4 (human) = FGFR4 (human) (UniProt P22455)
FYN (human) = FYN (human) (UniProt P06241)
RPS6KA5 KD1 (human) = RPS6KA5 KD1 (human) (UniProt O75582)
EPHA2 (human) = EPHA2 (human) (UniProt P29317)
MAP2K1 (human) = MAP2K1 (human) (UniProt Q02750)
EPHB3 (human) = EPHB3 (human) (UniProt P54753)
RPS6KA1 KD1 (human) = RPS6KA1 KD1 (human) (UniProt Q15418)
NEK3 (human) = NEK3 (human) (UniProt P51956)
MAP3K12 (human) = MAP3K12 (human) (UniProt Q12852)
HIPK1 (human) = HIPK1 (human) (UniProt Q86Z02)
[1] = tested on: RET (human), P07949 [V804L]
RIOK3 (human) = RIOK3 (human) (UniProt O14730)
STK11 (human) = STK11 (human) (UniProt Q15831)
MAPK8 (human) = MAPK8 (human) (UniProt P45983)
CDK3 (human) = CDK3 (human) (UniProt Q00526)
STK36 (human) = STK36 (human) (UniProt Q9NRP7)
[2] = tested on: PIK3CA (human), P42336 [Q546K]
MYLK4 (human) = MYLK4 (human) (UniProt Q86YV6)
CLK3 (human) = CLK3 (human) (UniProt P49761)
CSF1R (human) = CSF1R (human) (UniProt P07333)
MAP3K2 (human) = MAP3K2 (human) (UniProt Q9Y2U5)
ULK1 (human) = ULK1 (human) (UniProt O75385)
TGFBR1 (human) = TGFBR1 (human) (UniProt P36897)
AAK1 (human) = AAK1 (human) (UniProt Q2M2I8)
PHKG2 (human) = PHKG2 (human) (UniProt P15735)
HIPK3 (human) = HIPK3 (human) (UniProt Q9H422)
DDR2 (human) = DDR2 (human) (UniProt Q16832)
NIM1 (human) = NIM1 (human) (UniProt Q8IY84)
NEK4 (human) = NEK4 (human) (UniProt P51957)
SRPK1 (human) = SRPK1 (human) (UniProt Q96SB4)
MAP2K2 (human) = MAP2K2 (human) (UniProt P36507)
[3] = tested on: FLT3 (human), P36888 [D835H]
STK32B (human) = STK32B (human) (UniProt Q9NY57)
[4] = tested on: MET (human), P08581 [M1250T]
DMPK (human) = DMPK (human) (UniProt Q09013)
TNK1 (human) = TNK1 (human) (UniProt Q13470)
NEK5 (human) = NEK5 (human) (UniProt Q6P3R8)
[5] = tested on: KIT (human), P10721 [D816V]

Chain of ULK1 (human) (O75385 whole entry, looked up): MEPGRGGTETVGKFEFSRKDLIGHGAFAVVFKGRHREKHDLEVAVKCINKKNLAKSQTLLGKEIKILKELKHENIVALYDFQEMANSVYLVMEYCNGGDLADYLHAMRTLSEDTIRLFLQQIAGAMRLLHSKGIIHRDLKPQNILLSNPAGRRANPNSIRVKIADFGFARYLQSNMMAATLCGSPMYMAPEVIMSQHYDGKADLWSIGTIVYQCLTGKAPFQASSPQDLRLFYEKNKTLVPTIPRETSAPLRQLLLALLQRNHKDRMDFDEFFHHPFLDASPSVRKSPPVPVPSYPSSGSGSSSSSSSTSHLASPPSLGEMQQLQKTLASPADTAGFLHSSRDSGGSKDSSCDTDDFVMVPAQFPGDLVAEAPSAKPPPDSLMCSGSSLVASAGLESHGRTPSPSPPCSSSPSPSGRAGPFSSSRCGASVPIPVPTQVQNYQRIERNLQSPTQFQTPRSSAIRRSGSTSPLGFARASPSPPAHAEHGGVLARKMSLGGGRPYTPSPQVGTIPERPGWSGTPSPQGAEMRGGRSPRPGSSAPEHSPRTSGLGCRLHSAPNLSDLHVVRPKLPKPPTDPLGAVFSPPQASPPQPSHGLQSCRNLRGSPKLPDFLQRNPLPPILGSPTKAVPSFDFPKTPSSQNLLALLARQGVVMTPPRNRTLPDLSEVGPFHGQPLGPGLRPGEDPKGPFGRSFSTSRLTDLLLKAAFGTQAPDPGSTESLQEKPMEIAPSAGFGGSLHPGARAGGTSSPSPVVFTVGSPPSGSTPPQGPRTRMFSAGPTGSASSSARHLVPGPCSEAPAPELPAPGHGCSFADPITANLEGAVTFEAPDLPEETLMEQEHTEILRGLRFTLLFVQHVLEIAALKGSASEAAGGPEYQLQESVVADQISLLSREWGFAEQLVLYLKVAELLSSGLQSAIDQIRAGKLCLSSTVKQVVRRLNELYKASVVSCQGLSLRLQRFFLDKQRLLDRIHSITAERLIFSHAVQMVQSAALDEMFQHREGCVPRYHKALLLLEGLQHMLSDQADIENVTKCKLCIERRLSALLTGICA
Chain of EPHB3 (human) (P54753 whole entry, looked up): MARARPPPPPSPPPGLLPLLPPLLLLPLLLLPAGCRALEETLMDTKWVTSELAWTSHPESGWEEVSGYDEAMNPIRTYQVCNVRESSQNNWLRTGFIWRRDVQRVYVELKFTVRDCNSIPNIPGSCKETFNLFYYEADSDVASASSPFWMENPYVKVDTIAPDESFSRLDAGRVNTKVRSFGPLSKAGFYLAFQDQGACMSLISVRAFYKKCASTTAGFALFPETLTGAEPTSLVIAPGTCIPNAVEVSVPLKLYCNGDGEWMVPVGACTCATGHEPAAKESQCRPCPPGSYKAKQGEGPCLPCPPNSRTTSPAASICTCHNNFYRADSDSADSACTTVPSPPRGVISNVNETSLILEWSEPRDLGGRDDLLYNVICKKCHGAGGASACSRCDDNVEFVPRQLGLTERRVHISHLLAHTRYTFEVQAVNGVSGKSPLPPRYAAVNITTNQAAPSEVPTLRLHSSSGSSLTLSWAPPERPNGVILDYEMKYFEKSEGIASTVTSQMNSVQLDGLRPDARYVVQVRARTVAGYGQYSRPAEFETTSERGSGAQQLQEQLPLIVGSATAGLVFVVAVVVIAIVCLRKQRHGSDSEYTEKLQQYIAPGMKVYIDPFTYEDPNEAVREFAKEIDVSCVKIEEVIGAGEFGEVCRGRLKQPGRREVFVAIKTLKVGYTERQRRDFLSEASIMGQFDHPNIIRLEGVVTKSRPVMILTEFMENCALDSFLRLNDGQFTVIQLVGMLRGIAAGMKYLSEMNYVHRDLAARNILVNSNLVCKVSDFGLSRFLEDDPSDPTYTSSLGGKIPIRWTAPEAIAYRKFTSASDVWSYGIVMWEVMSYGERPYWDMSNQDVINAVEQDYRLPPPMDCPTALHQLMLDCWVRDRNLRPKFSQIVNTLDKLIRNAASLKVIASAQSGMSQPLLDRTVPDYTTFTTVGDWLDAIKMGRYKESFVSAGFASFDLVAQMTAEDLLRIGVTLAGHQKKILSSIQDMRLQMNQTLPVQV
Chain of DDR2 (human) (Q16832 whole entry, looked up): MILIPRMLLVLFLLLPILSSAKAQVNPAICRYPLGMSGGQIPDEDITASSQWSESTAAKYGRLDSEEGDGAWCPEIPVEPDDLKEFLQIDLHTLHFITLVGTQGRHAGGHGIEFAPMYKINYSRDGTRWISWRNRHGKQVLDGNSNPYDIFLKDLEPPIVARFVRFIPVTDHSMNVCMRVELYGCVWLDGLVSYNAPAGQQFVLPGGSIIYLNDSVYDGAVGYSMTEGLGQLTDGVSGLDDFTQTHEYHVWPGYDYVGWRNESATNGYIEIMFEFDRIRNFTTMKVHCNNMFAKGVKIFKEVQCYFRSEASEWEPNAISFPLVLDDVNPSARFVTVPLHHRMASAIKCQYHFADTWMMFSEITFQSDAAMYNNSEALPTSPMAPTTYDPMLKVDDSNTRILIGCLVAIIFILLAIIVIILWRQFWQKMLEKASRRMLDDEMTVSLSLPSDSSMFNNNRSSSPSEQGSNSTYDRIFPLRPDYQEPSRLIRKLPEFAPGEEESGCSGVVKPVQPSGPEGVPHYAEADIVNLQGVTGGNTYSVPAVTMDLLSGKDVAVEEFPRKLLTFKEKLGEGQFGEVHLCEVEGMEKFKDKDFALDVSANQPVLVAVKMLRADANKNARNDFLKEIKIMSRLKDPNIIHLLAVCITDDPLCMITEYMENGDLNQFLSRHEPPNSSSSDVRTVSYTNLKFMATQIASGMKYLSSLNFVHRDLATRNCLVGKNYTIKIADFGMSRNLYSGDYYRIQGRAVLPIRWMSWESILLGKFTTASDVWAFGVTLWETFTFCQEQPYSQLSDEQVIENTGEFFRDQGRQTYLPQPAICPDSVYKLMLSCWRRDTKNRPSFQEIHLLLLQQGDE
Chain of STK32B (human) (Q9NY57 whole entry, looked up): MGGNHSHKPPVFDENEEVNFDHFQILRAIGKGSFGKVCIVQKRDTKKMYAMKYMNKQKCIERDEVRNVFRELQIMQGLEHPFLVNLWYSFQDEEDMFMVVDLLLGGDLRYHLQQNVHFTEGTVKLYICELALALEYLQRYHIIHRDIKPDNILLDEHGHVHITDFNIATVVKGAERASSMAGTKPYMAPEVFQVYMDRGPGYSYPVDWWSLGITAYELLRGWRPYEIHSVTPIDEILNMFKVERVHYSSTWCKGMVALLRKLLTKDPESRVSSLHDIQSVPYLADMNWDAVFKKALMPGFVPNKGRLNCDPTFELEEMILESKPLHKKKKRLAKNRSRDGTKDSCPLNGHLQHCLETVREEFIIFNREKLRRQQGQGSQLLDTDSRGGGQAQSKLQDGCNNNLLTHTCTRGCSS
Chain of STK11 (human) (Q15831 whole entry, looked up): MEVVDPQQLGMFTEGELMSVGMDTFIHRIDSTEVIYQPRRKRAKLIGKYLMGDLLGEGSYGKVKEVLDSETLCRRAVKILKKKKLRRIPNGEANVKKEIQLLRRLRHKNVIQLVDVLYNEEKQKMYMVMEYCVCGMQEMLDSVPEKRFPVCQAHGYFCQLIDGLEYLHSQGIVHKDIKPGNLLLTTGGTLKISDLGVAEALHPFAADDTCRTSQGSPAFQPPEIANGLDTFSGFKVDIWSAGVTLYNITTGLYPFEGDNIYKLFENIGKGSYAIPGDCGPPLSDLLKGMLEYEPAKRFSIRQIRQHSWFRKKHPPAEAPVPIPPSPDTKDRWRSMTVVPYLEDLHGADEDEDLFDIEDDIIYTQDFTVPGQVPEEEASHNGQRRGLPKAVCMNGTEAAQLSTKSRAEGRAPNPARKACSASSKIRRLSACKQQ
Chain of FYN (human) (P06241 whole entry, looked up): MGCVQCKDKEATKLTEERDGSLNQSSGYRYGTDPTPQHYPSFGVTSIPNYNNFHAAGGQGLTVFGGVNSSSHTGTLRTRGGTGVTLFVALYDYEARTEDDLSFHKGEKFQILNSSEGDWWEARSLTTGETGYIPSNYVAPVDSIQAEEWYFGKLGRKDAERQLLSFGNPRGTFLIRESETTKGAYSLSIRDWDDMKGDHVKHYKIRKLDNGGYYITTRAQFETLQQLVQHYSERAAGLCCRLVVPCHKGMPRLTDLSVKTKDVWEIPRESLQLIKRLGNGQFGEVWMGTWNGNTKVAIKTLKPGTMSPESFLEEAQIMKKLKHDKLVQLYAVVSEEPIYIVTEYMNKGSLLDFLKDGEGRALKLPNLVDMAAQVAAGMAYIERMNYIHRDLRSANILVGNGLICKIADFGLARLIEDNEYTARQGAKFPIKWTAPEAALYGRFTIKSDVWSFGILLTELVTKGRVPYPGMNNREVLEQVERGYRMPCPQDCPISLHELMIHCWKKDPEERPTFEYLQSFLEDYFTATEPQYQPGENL
Chain of NIM1 (human) (Q8IY84 whole entry, looked up): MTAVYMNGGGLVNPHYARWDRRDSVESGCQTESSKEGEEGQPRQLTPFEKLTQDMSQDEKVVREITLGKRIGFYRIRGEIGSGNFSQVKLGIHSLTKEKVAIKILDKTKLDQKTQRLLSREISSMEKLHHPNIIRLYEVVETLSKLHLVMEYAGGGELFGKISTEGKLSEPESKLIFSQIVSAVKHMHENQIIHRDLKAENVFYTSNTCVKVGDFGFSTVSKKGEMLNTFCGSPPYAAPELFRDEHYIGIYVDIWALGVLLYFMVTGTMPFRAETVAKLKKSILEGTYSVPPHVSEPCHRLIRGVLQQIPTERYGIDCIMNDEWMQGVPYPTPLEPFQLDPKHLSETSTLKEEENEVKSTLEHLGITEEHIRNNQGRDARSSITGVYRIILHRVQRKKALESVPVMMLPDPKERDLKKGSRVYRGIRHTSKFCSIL
Chain of CDK3 (human) (Q00526 whole entry, looked up): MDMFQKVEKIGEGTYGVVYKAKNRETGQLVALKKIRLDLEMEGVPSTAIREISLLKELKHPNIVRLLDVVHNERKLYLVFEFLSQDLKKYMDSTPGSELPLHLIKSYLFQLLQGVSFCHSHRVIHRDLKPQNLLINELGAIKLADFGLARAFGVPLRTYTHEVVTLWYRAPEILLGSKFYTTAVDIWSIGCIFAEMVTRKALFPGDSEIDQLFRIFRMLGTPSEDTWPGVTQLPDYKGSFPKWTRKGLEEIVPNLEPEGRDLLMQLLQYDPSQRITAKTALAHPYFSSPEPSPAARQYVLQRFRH

**Q.** For `CCC(=O)N1CCN(c2ccc(-n3c(=O)ccc4cnc5ccc(-c6cnc7ccccc7c6)cc5c43)cc2C(F)(F)F)CC1`, which kinase still bound, per cent of control (SGK110 (human)) is on record?
**A.** 94%

**Q.** What about the kinase still bound, per cent of control (STK32A (human)) of the same compound?
**A.** 100%

**Q.** What about the kinase still bound, per cent of control (SBK1 (human)) of the same compound?
**A.** 88%

**Q.** What about the kinase still bound, per cent of control (FGFR4 (human)) of the same compound?
**A.** 21%

**Q.** What about the kinase still bound, per cent of control (FYN (human)) of the same compound?
**A.** 49%

**Q.** What about the kinase still bound, per cent of control (RPS6KA5 KD1 (human)) of the same compound?
**A.** 100%

**Q.** What about the kinase still bound, per cent of control (EPHA2 (human)) of the same compound?
**A.** 59%

**Q.** And the kinase still bound, per cent of control (MAP2K1 (human))?
**A.** 100%

**Q.** And the kinase still bound, per cent of control (EPHB3 (human))?
**A.** 85%

**Q.** What about the kinase still bound, per cent of control (RPS6KA1 KD1 (human)) of the same compound?
**A.** 68%

**Q.** And the kinase still bound, per cent of control (NEK3 (human))?
**A.** 100%

**Q.** And the per cent of control (MAP3K12 (human))?
**A.** 100%

**Q.** What about the kinase still bound, per cent of control (HIPK1 (human)) of the same compound?
**A.** 63%

**Q.** And the kinase still bound, per cent of control [1]?
**A.** 66%

**Q.** What about the kinase still bound, per cent of control (RIOK3 (human)) of the same compound?
**A.** 90%

**Q.** What about the kinase still bound, per cent of control (STK11 (human)) of the same compound?
**A.** 100%

**Q.** What about the kinase still bound, per cent of control (MAPK8 (human)) of the same compound?
**A.** 22%

**Q.** And the per cent of control (CDK3 (human))?
**A.** 100%

**Q.** What about the kinase still bound, per cent of control (STK36 (human)) of the same compound?
**A.** 17%

**Q.** And the kinase still bound, per cent of control [2]?
**A.** 6.8%

**Q.** And the kinase still bound, per cent of control (MYLK4 (human))?
**A.** 83%

**Q.** What about the kinase still bound, per cent of control (CLK3 (human)) of the same compound?
**A.** 43%

**Q.** What about the kinase still bound, per cent of control (CSF1R (human)) of the same compound?
**A.** 24%

**Q.** And the kinase still bound, per cent of control (MAP3K2 (human))?
**A.** 62%

**Q.** And the kinase still bound, per cent of control (ULK1 (human))?
**A.** 100%

**Q.** What about the kinase still bound, per cent of control (TGFBR1 (human)) of the same compound?
**A.** 70%

**Q.** What about the kinase still bound, per cent of control (AAK1 (human)) of the same compound?
**A.** 75%

**Q.** What about the kinase still bound, per cent of control (PHKG2 (human)) of the same compound?
**A.** 100%

**Q.** What about the kinase still bound, per cent of control (HIPK3 (human)) of the same compound?
**A.** 86%

**Q.** What about the kinase still bound, per cent of control (DDR2 (human)) of the same compound?
**A.** 100%

**Q.** And the kinase still bound, per cent of control (NIM1 (human))?
**A.** 84%

**Q.** What about the kinase still bound, per cent of control (NEK4 (human)) of the same compound?
**A.** 86%

**Q.** And the kinase still bound, per cent of control (SRPK1 (human))?
**A.** 100%

**Q.** And the kinase still bound, per cent of control (MAP2K2 (human))?
**A.** 100%

**Q.** And the kinase still bound, per cent of control [3]?
**A.** 18%

**Q.** What about the kinase still bound, per cent of control (STK32B (human)) of the same compound?
**A.** 87%

**Q.** And the kinase still bound, per cent of control [4]?
**A.** 79%

**Q.** What about the kinase still bound, per cent of control (DMPK (human)) of the same compound?
**A.** 77%

**Q.** What about the kinase still bound, per cent of control (TNK1 (human)) of the same compound?
**A.** 6.8%

**Q.** And the kinase still bound, per cent of control (NEK5 (human))?
**A.** 5.8%

**Q.** Which kinase still bound, per cent of control (SGK110 (human)) does the source give for `COc1ccc(-c2ccc3c(N4CCOCC4)nc(N4C[C@@H](C)O[C@@H](C)C4)nc3n2)cc1CO` here?
**A.** 98%

**Q.** And the kinase still bound, per cent of control (STK32A (human))?
**A.** 67%

**Q.** And the kinase still bound, per cent of control (SBK1 (human))?
**A.** 100%

**Q.** What about the kinase still bound, per cent of control (FGFR4 (human)) of the same compound?
**A.** 100%

**Q.** What about the kinase still bound, per cent of control (FYN (human)) of the same compound?
**A.** 96%

**Q.** And the kinase still bound, per cent of control (RPS6KA5 KD1 (human))?
**A.** 100%

**Q.** And the kinase still bound, per cent of control (EPHA2 (human))?
**A.** 100%

**Q.** And the kinase still bound, per cent of control (MAP2K1 (human))?
**A.** 100%

**Q.** What about the kinase still bound, per cent of control (EPHB3 (human)) of the same compound?
**A.** 98%

**Q.** What about the kinase still bound, per cent of control (RPS6KA1 KD1 (human)) of the same compound?
**A.** 70%

**Q.** And the kinase still bound, per cent of control (NEK3 (human))?
**A.** 61%

**Q.** And the kinase still bound, per cent of control [5]?
**A.** 94%

**Q.** What about the per cent of control (MAP3K12 (human)) of the same compound?
**A.** 100%

**Q.** And the kinase still bound, per cent of control (HIPK1 (human))?
**A.** 97%

**Q.** What about the kinase still bound, per cent of control [1] of the same compound?
**A.** 100%

**Q.** And the kinase still bound, per cent of control (RIOK3 (human))?
**A.** 100%

**Q.** And the kinase still bound, per cent of control (STK11 (human))?
**A.** 95%

**Q.** And the kinase still bound, per cent of control (MAPK8 (human))?
**A.** 87%

**Q.** And the per cent of control (CDK3 (human))?
**A.** 100%

**Q.** What about the kinase still bound, per cent of control (STK36 (human)) of the same compound?
**A.** 92%

**Q.** What about the kinase still bound, per cent of control [2] of the same compound?
**A.** 2.8%

**Q.** What about the kinase still bound, per cent of control (MYLK4 (human)) of the same compound?
**A.** 92%

**Q.** What about the kinase still bound, per cent of control (CLK3 (human)) of the same compound?
**A.** 90%

**Q.** What about the kinase still bound, per cent of control (CSF1R (human)) of the same compound?
**A.** 90%

**Q.** What about the kinase still bound, per cent of control (MAP3K2 (human)) of the same compound?
**A.** 78%

**Q.** What about the kinase still bound, per cent of control (ULK1 (human)) of the same compound?
**A.** 79%

**Q.** What about the kinase still bound, per cent of control (TGFBR1 (human)) of the same compound?
**A.** 100%

**Q.** What about the kinase still bound, per cent of control (AAK1 (human)) of the same compound?
**A.** 93%

**Q.** What about the kinase still bound, per cent of control (PHKG2 (human)) of the same compound?
**A.** 77%

**Q.** And the kinase still bound, per cent of control (HIPK3 (human))?
**A.** 76%

**Q.** And the kinase still bound, per cent of control (DDR2 (human))?
**A.** 100%

**Q.** What about the kinase still bound, per cent of control (NIM1 (human)) of the same compound?
**A.** 97%

**Q.** And the kinase still bound, per cent of control (NEK4 (human))?
**A.** 76%

**Q.** What about the kinase still bound, per cent of control (SRPK1 (human)) of the same compound?
**A.** 100%

**Q.** And the kinase still bound, per cent of control (MAP2K2 (human))?
**A.** 92%

**Q.** And the kinase still bound, per cent of control [3]?
**A.** 100%

**Q.** And the kinase still bound, per cent of control (STK32B (human))?
**A.** 100%

**Q.** What about the kinase still bound, per cent of control [4] of the same compound?
**A.** 100%

**Q.** What about the kinase still bound, per cent of control (DMPK (human)) of the same compound?
**A.** 86%

**Q.** What about the kinase still bound, per cent of control (TNK1 (human)) of the same compound?
**A.** 100%

**Q.** And the kinase still bound, per cent of control (NEK5 (human))?
**A.** 100%
